From US20160159814A1, “GLYCINE TRANSPORTER INHIBITOR” (TAISHO PHARMACEUTICAL CO., LTD., priority 2013, published 2016)

These molecules were tested against T1, human type 1 glycine transporter (GlyT1) (Homo sapiens, UniProt P48067) (assay: Glycine uptake inhibition experiment ([3H] glycine uptake in T98G cells expressing GlyT1)). Settings: not given.
T1 construct: T98G cells (glioma cells) expressing human type 1 glycine transporter (GlyT1) were used; endogenous in cells; host or cells: T98G cells (human glioma cells)
T1 sequence (P48067 1-706): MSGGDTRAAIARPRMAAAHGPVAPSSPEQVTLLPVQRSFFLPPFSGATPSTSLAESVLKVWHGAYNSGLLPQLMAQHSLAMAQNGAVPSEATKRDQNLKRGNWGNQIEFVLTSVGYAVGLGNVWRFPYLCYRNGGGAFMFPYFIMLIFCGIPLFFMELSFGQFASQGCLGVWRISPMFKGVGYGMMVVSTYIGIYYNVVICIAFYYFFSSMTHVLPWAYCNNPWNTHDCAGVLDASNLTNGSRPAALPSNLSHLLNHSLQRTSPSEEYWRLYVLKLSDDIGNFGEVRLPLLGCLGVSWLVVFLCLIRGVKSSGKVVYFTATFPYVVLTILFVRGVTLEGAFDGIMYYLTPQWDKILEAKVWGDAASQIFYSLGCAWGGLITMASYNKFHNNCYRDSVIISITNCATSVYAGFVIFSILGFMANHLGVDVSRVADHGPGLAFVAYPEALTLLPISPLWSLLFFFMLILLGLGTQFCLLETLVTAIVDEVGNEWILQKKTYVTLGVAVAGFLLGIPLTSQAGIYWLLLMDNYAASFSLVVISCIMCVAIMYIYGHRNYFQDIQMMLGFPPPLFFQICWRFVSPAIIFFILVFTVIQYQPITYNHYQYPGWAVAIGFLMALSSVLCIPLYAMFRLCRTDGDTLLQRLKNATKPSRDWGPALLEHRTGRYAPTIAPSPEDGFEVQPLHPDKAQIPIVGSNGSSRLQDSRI
Assay type: cell-based
Method in brief: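 T98G glioma cells expressing human GlyT1 were pretreated 10 min with compound in HEPES buffer pH 7.4 (0.2% BSA), then incubated with compound plus 250 nM final [3H]glycine for 15 min at room temperature. Intracellular radioactivity was counted after NaOH lysis; 10 μM ALX5407 defined non-specific uptake. IC50 came from 10^−9–10^−5 M curves.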

Question: C[C@H](O)c1cccc2c1C(F)(F)C(=O)N2Cc1cc(C#N)ncc1Cl [Compound 195, 5-chloro-4-({3,3-difluoro-4-[(1S)-1-hydroxyethyl]-2-oxo-2,3-dihydro-1H-indol-1-yl}methyl)pyridine-2-carbonitrile] was tested. Which IC50 did it give?
Answer: The IC50 was 42 nM.

Question: Which IC50 does the source give for C[C@H](O)c1cccc2c1C(F)(F)C(=O)N2Cc1ccc(Cl)nn1 [Compound 204, 1-[(6-chloropyridazin-3-yl)methyl]-3,3-difluoro-4-[(1S)-1-hydroxyethyl]-1,3-dihydro-2H-indol-2-one] here?
Answer: The IC50 was 110 nM.

Question: For CCOc1ccc(CN2C(=O)C(F)(F)c3c(C(O)C(F)F)cccc32)cn1 (single isomer, unassigned) [Compound 278, 4-(2,2-difluoro-1-hydroxyethyl)-1-[(6-ethoxypyridin-3-yl)methyl]-3,3-difluoro-1,3-dehydro-2H-indol-2-one], which IC50 is on record?
Answer: The IC50 was 210 nM.

Question: For C[C@H](O)c1cccc2c1C(F)(F)C(=O)N2Cc1ccc(C(F)(F)F)nc1Cl [Compound 239, 1-{[2-chloro-6-(trifluoromethyl)pyridin-3-yl]methyl}-3,3-difluoro-4-[(1S)-1-hydroxyethyl]-1,3-dihydro-2H-indol-2-one], which IC50 is on record?
Answer: Its IC50 is 220 nM.

Question: How did the IC50 turn out when C[C@H](O)c1cccc2c1C(F)(F)C(=O)N2Cc1ncccc1C#N [Compound 213, 2-({3,3-difluoro-4-[(S)-1-hydroxyethyl]-2-oxo-2,3-dihydro-1-indol-1-yl}methyl)pyridine-3-carbonitrile] was run?
Answer: Its IC50 is 40 nM.

Question: With [2H]C([2H])(c1cccc(Cl)n1)N1C(=O)C(F)(F)c2c([C@H](C)O)cccc21 [Compound 205, 1-[(6-chloropyridin-2-yl)(2H2)methyl]-3,3-difluoro-4-[(1S)-1-hydroxyethyl]-1,3-dihydro-2H-indol-2-one] as the molecule, how does the IC50 read?
Answer: The IC50 was 5.6 nM.

Question: With O=C1N(Cc2ccc(C(F)(F)F)cn2)c2cccc(C(O)C(F)F)c2C1(F)F (single isomer, unassigned) [Compound 169] as the molecule, how does the IC50 read?
Answer: Its IC50 is 56 nM.

Question: How did the IC50 turn out when COc1cc(CN2C(=O)C(F)(F)c3c([C@@H](O)C(F)(F)F)cccc32)ccn1 [Compound 166, 3,3-difluoro-1-[(2-methoxypyridin-4-yl)methyl]-4-[(1R)-2,2,2-trifluoro-1-hydroxyethyl]-1,3-dihydro-2H-indol-2-one] was run?
Answer: Its IC50 is 26 nM.

Question: For C[C@H](O)c1cccc2c1C(F)(F)C(=O)N2Cc1cnc(Cl)cc1Cl [Compound 223, 1-[(4,6-dichloropyridin-3-yl)methyl]-3,3-difluoro-4-[(1S)-1-hydroxyethyl]-1,3-dihydro-2H-indol-2-one], which IC50 is on record?
Answer: The IC50 was 66 nM.

Question: With C[C@H](O)c1cccc2c1C(F)(F)C(=O)N2Cc1ccc(Cl)c(C#N)n1 [Compound 202, 3-chloro-6-({3,3-difluoro-4-[(1S)-1-hydroxyethyl]-2-oxo-2,3-dihydro-1H-indol-1-yl)methyl)pyridine-2-carbonitrile] as the molecule, how does the IC50 read?
Answer: The IC50 was 6.9 nM.

Question: For COc1nc(CN2C(=O)C(F)(F)c3c([C@H](C)O)cccc32)ccc1Cl [Compound 249, 1-[(5-chloro-6-methoxypyridin-2-yl)methyl]-3,3-difluoro-4-[(1S)-1-hydroxyethyl]-1,3-dihydro-2H-indol-2-one], which IC50 is on record?
Answer: Its IC50 is 58 nM.

Question: COc1cccc(CN2C(=O)C(F)(F)c3c(C(O)C(F)F)cccc32)n1 (single isomer, unassigned) [Compound 256, 4-(2,2-difluoro-1-hydroxyethyl)-3,3-difluoro-1-[(6-methoxypyridin-2-yl)methyl)-1,3-dihydro-2H-indol-2-one] was tested. Which IC50 did it give?
Answer: The IC50 was 9.6 nM.

Same assay, conditions: glycine uptake inhibition

Question: Which IC50 does the source give for C[C@H](O)c1cccc2c1C(F)(F)C(=O)N2Cc1cccc2ccnn12 [Compound 104, 3,3-difluoro-4-[(1S)-1-hydroxyethyl]-1-(pyrazolo[1,5-a]pyridin-7-ylmethyl)-1,3-dihydro-2H-indol-2-one] here?
Answer: Its IC50 is 88 nM.

Question: CC(c1cccc(Cl)n1)N1C(=O)C(F)(F)c2c([C@H](C)O)cccc21 (single isomer, unassigned) [Compound 53] was tested. Which IC50 did it give?
Answer: Its IC50 is 140 nM.

Question: Which IC50 does the source give for O=C1N(Cc2ccccc2)c2cccc(C(O)C(F)F)c2C1(F)F (single isomer, unassigned) [Compound 157, 1-benzyl-4-(2,2-difluoro-1-hydroxyethyl)-3,3-difluoro-1,3-dihydro-2H-indol-2-one] here?
Answer: Its IC50 is 21 nM.

Question: With O=C1N(Cc2ccnc(Cl)c2)c2cccc([C@@H](O)C(F)(F)F)c2C1(F)F [Compound 32, 1-[(2-chloropyridin-4-yl)methyl]-3,3-difluoro-4-[(1R)-2,2,2-trifluoro-1-hydroxyethyl]-1,3-dihydro-2H-indol-2-one] as the molecule, how does the IC50 read?
Answer: Its IC50 is 38 nM.

Question: C[C@H](O)c1cccc2c1C(F)(F)C(=O)N2Cc1ccnc(-n2nccn2)c1 [Compound 45, 3,3-difluoro-4-[(1S)-1-hydroxyethyl]-1-{[2-(2H-1,2,3-triazol-2-yl)pyridin-4-yl]methyl}-1,3-dihydro-2H-indol-2-one] was tested. Which IC50 did it give?
Answer: The IC50 was 110 nM.

Question: With O=C1N(Cc2cncc(Cl)c2)c2ccc(Cl)c([C@@H](O)C(F)(F)F)c2C1(F)F [Compound 95, 5-chloro-1-[(5-chloropyridin-3-yl)methyl]-3,3-difluoro-4-[(1R)-2,2,2-trifluoro-1-hydroxyethyl]-1,3-dihydro-2H-indol-2-one] as the molecule, how does the IC50 read?
Answer: The IC50 was 1000 nM.

Question: C[C@H](O)c1cccc2c1C(F)(F)C(=O)N2Cc1ccc(C(F)(F)F)cn1 [Compound 112, 3,3-difluoro-4-[(1S)-1-hydroxyethyl]-1-{[5-(trifluoromethyl)pyridin-2-yl]methyl}-1,3-dihydro-2H-indol-2-one] was tested. Which IC50 did it give?
Answer: The IC50 was 29 nM.

Question: For O=C1N(Cc2cncc(Cl)n2)c2cccc([C@@H](O)C(F)(F)F)c2C1(F)F [Compound 47, 1-[(6-chloropyrazin-2-yl)methyl]-3,3-difluoro-4-[(1R)-2,2,2-trifluoro-1-hydroxyethyl]-1,3-dihydro-2H-indol-2-one], which IC50 is on record?
Answer: Its IC50 is 40 nM.

Question: O=C1N(Cc2cncc(Cl)c2)c2ccc(F)c(C(O)C(F)(F)F)c2C1(F)F (single isomer, unassigned) [Compound 50, 1-[(5-chloropyridin-3-yl)methyl]-3,3,5-trifluoro-4-(2,2,2-trifluoro-1-hydroxyethyl)-1,3-dihydro-2H-indol-2-one] was tested. Which IC50 did it give?
Answer: Its IC50 is 170 nM.

Question: With C[C@H](O)c1cccc2c1C(F)(F)C(=O)N2Cc1cccc(Cl)c1 [Compound 55, 1-(3-chlorobenzyl)-3,3-difluoro-4-[(1S)-1-hydroxyethyl]-1,3-dihydro-2H-indol-2-one] as the molecule, how does the IC50 read?
Answer: Its IC50 is 2.2 nM.

Question: C[C@H](O)c1cccc2c1C(F)(F)C(=O)N2Cc1cc(Cl)ccn1 [Compound 65, 1-[(4-chloropyridin-2-yl)methyl]-3,3-difluoro-4-[(1S)-1-hydroxyethyl]-1,3-dihydro-2H-indol-2-one] was tested. Which IC50 did it give?
Answer: The IC50 was 18 nM.

Question: COc1ccnc(CN2C(=O)C(F)(F)c3c([C@H](C)O)cccc32)c1 [Compound 66, 3,3-difluoro-4-[(1S)-1-hydroxyethyl]-1-[(4-methoxypyridin-2-yl)methyl]-1,3-dihydro-2H-indol-2-one] was tested. Which IC50 did it give?
Answer: Its IC50 is 130 nM.

Question: How did the IC50 turn out when Cn1c(CN2C(=O)C(F)(F)c3c([C@@H](O)C(F)(F)F)cccc32)cc2ccccc2c1=O [Compound 142, 3-({3,3-difluoro-2-oxo-4-[(1R)-2,2,2-trifluoro-1-hydroxyethyl]-2,3-dihydro-1H-indol-1-yl}methyl)-2-methylisoquinan-1(2H)-one] was run?
Answer: Its IC50 is 130 nM.

Question: With C[C@H](O)c1cccc2c1C(F)(F)C(=O)N2Cc1cncc(Cl)n1 [Compound 72, 1-[(6-chloropyrazin-2-yl)methyl]-3,3-difluoro-4-[(1S)-1-hydroxyethyl]-1,3-dihydro-2H-indol-2-one] as the molecule, how does the IC50 read?
Answer: The IC50 was 12 nM.

Question: How did the IC50 turn out when O=C1N(Cc2ccnc(C(F)F)c2)c2cccc([C@@H](O)C(F)(F)F)c2C1(F)F [Compound 139, 1-[[2-(difluoromethyl)pyridin-4-yl]methyl]-3,3-difluoro-4-[(1R)-2,2,2-trifluoro-1-hydroxyethyl]-1,3-dihydro-2H-indol-2-one] was run?
Answer: Its IC50 is 45 nM.

Question: How did the IC50 turn out when C[C@H](O)c1cccc2c1C(F)(F)C(=O)N2Cc1cc(C(F)F)ccn1 [Compound 122, 1-{[4-(difluoromethyl)pyridin-2-yl]methyl}-3,3-difluoro-4-{(1S)-1-hydroxyethyl]-1,3-dihydro-2H-indol-2-one] was run?
Answer: The IC50 was 220 nM.

Question: How did the IC50 turn out when N#Cc1cc(CN2C(=O)C(F)(F)c3c(C(O)C(F)(F)F)cccc32)ccn1 (single isomer, unassigned) [Compound 21, 4-{[3,3-difluoro-2-oxo-4-(2,2,2-trifluoro-1-hydroxyethyl)-2,3-dihydro-1H-indol-1-yl]methyl}pyridine-2-carbonitrile] was run?
Answer: The IC50 was 71 nM.

Same assay, conditions: table section whose head prints (μm)

Question: How did the IC50 turn out when COc1cc(CN2C(=O)C(F)(F)c3c([C@H](C)O)cccc32)ncc1F [Compound 261, 3,3-difluoro-1-[(5-fluoro-4-methoxypyridin-2-yl)methyl)-[(1S)-1-hydroxyethyl]-1,3-dihydro-2H-indol-2-one] was run?
Answer: The IC50 was 250 nM.

Question: Which IC50 does the source give for O=C1N(Cc2cc(C(F)(F)F)c(Cl)cn2)c2cccc(C(O)C(F)F)c2C1(F)F (single isomer, unassigned) [Compound 268, 1-{[5-chloro-4-(trifluoromethyl)pyridin-2-yl]methyl)-4-(2,2-difluoro-1-hydroxyethyl)-3,3-difluoro-1,3-dihydro-2H-indol-2-one] here?
Answer: The IC50 was 16 nM.
